According to patent US7611721B1, “Adjuvant combination formulations” (priority 2000, dated 2009):
Where two headings read alike, the source gives them in different places.

What was measured:
[1] = system: spleen cells; experiment: Secretion of IL-4 by spleen cells (ELISA); assay type: cell-based, Balb/c mice; settings: Experiment 2, 96 hours culture, after subtraction of lysozyme value
Experimental: (§1) For proliferation assays and in vitro cytokine analysis, spleen cells were obtained from mice at the indicated time points. Single cell suspensions were prepared from pools of 3-5 mice as indicated in Results. For proliferation and cytokine analysis, cells were suspended in round bottom 96 well culture plates precoated overnight with HIV peptide antigens, control proteins, or RPMI-10 only. Spleen cells were added at 5×10^5 cells/well using culture medium having 2× supplements. Cell culture supernatants were harvested from triplicate wells for cytokine analysis three or six days after culture initiation. Immediately after supernatant harvest, cultures were pulsed with ^3H-thymidine for 18-24 hours, and harvested to quantify cell proliferation.
(§2) For cytokine analysis, cell culture supernatants were added to wells coated with BVD6-11B11 (for anti-IL4), or R4-6A2 (for interferon-gamma). After incubation and washing, wells were developed using biotin-labeled BVD6-24G2 (for IL4) or XMG 1.2 (for interferon-gamma). The concentration of cytokines was determined using a standard curve prepared from recombinant murine interferon-gamma or interleukin-4. All cytokine reagents were purchased from Pharmingen (San Diego, Calif.).
(§3) Interleukin-4 secreted into culture by spleen cells stimulated with 25 μg T1SP10MN(A) (−Cys) was measured. Spleen cells were harvested from pools of five Balb/c female mice and cultured with the indicated antigenic stimuli (50 ng IL-12, 10 μg GM-CSF, 50 μg MPL™ as indicated) for either three or six days. Interleukin-4 levels were determined by ELISA, and compared to a standard having a known concentration. Blank wells indicate that the assay could not detect Interleukin-4 from those culture conditions. The lower limit of detection sensitivity was 22 Units/ml.
Cells were cultured for a total of 96 hours. Cell culture supernatants were analyzed for IL-4 by ELISA. All values were after subtraction from those determined from supernatants of cells stimulated with 10 μg of an irrelevant protein (lysozyme). Results which were below the limit of detection, after subtraction from stimulation induced with lysozyme are indicated as “bd”. The adjuvants were 40 ng IL-12, 10 μg GM-CSF and 50 μg MPL™.

[2] = system: spleen cells; experiment: Secretion of interferon-gamma by spleen cells (ELISA); assay type: cell-based, Balb/c mice; settings: Experiment 2, 96 hours culture, after subtraction of lysozyme value
Experimental: as §1, §2
as §3, with “Interferon-gamma” for “Interleukin-4”, “(−Cys).” for “(−Cys) was measured.”, “(the same” for “(50 ng IL-12, 10 μg GM-CSF, 50 μg MPL™”, “in Example 6)” for “indicated)”, “4 picograms/ml.” for “22 Units/ml.”
Cells were cultured for a total of 96 hours. Cell culture supernatants were analyzed for interferon-gamma by ELISA. All values were after subtraction from those determined from supernatants of cells stimulated with 10 μg of lysozyme. Results which were below the limit of detection, after subtraction from stimulation induced with lysozyme are indicated as “bd”. The adjuvants were the same as those in Example 12.

[3] = system: T1SP10MN(A) (−Cys); settings: Experiment 3; pooled, n=5 Swiss-Webster; 15 days after secondary immunization
Experimental: (§4) The protocols of Experiment 2 were followed, with Swiss-Webster mice used instead of Balb/c mice. Only reciprocal anti-peptide IgG endpoint titers and vaginal lavage endpoint reciprocal endpoint IgG and IgA antibody titers were measured in this experiment.
Aqueous MPL™ was delivered at 50 μg per dose. Recombinant murine IL-12 was delivered at 40 ng/mouse. Recombinant murine GM-CSF was delivered at 10 μg/mouse.

[4] = system: T1SP10MN(A) (−Cys); settings: Experiment 3, 14 days after second immunization
Experimental: as §4
Reciprocal anti-T1SP10MN(A) (−Cys) IgG endpoint titers were measured from geometric means from individual Swiss-Webster mice (GMT), obtained 14 days after the second immunization. IgG1 and IgG2a subclass endpoint titers were also measured from pooled serum. For recipients of Freund's adjuvants, mice were primed with peptide emulsified in CFA, and boosted with IFA. […] Aqueous MPL™ was delivered at 50 μg per dose. Recombinant murine IL-12 was delivered at 40 ng/mouse. Recombinant murine GM-CSF was delivered at 10 μg/mouse.

[5] = system: spleen cells; assay type: cell-based, Balb/c mice; settings: Experiment 2, 96 hours culture
Experimental: as §1
Groups of five Balb/c female mice were immunized with 25 μg T1SP10MN(A) (−Cys) and the indicated adjuvants on days 0 and 28. Spleen cells were established in culture on day 56, and harvested for measurement of ^3H-thymidine incorporation 96 hours later. Mice were immunized with 50 ng IL-12, […], 50 μg MPL™ in an aqueous formulation, or as a stable emulsion with 2% SE. Data are presented as the delta cpm values as compared to proliferation values measured from cells grown in culture without stimulation.
Cells were cultured for a total of 96 hours. ^3H-thymidine was added to cultures for the last 18 hours. Data are presented as a proliferation index normalized to cells stimulated in culture with ConA ([mean cpm Antigen/mean cpm ConA]−[mean cpm medium/mean cpm ConA])×100. As a result, cells cultured in medium have a background proliferation of 0. Proliferation values less than cells grown in culture unstimulated are in parentheses.

[6] = system: T1SP10MN(A) (−Cys)
Experimental: Mice were immunized subcutaneously in the rump, in a total volume of 0.2 ml equally divided on each side of the tail. Immunizations were administered at varying time intervals, as indicated below. Antigen and cytokines were diluted in phosphate buffered saline to the appropriate concentrations and formulated with adjuvants less than 16 hours prior to immunization, under sterile conditions. Vaccines were mixed by gentle agitation, and stored at 4° C. Formulations were mixed by vortex immediately prior to immunization.
Animals were bled prior to initial immunization, and at indicated time points. Serum was analyzed from individual mice, or as pools from mice within groups.
For analysis of HIV peptide-specific antibody and subclass distribution, peptide was suspended in either carbonate buffer (15 mM Na2CO3, 35 mM NaHCO3, pH 9.6), or PBS, at a concentration of 1 μg/ml and plated to 96 well microtiter plates (Nunc) in a volume of 100:1. After overnight incubation at 37° C., plates were washed, and blocked (0.1% gelatin/PBS) at room temperature for 2-4 hours. ELISA plates were washed with wash buffer (PBS, 0.1% Tween™20) before addition of serially diluted serum (PBS, 0.1% gelatin, 0.05% Tween™20, 0.02% sodium azide). After a four hour incubation, wells were washed and appropriate dilutions of biotinylated anti-isotype/subclass antibodies were added for incubation at 4° C. overnight. Wells were washed and incubated with strepavidin-conjugated horseradish peroxidase. After incubation, wells were washed, and developed with ABTS. Wells were read at 405 nm. Titers were standardized using control sera.
Reciprocal anti-HIV peptide-specific IgG endpoint titers were measured from pooled serum (n=5 Balb/c) at the indicated time points after initial immunization. Mice were immunized subcutaneously in the rump with 25 μg of T1SP10MN(A) (−Cys), unless otherwise indicated, on day 0, and on day 27. For recipients of Freund's adjuvants, mice were primed with peptide emulsified in CFA, and boosted with IFA. MPL™ SE was provided as an emulsion containing 2% squalene oil and 50 μg MPL™ per dose. SE is an oil-in-water emulsion vehicle consisting of squalene, glycerol, and an emulsifying agent. Recombinant murine IL-12 was delivered at 50 ng/mouse. Recombinant murine GM-CSF was delivered at 10 μg/mouse.
Reciprocal endpoint IgG subclass titers were measured from pooled serum (n=5 Balb/c) six weeks after initial immunization, two weeks after secondary immunization. Mice were immunized subcutaneously in the rump with 25 μg of peptide, unless otherwise indicated. For recipients of Freund's adjuvants, mice were primed with peptide emulsified in complete Freund's adjuvant, and boosted with incomplete Freund's adjuvant on weeks four and six. MPL™ SE was provided as an emulsion containing 2% squalene oil and 50 μg MPL™ per dose. SE is an oil-in-water emulsion vehicle consisting of squalene, glycerol, and an emulsifying agent. Recombinant murine IL-12 was delivered at 50 ng/mouse. Recombinant murine GM-CSF was delivered at 10 μg/mouse.
Mice were immunized subcutaneously in the rump, in a total volume of 0.2 ml equally divided on each side of the tail. Immunizations were administered on days 0 and 21 with 25 μg of the HIV peptide, together with the indicated amount of adjuvant(s).
Reciprocal anti-peptide IgG endpoint titers were measured from either geometric means from individual mice (GMT) or from pooled serum (n=5 Balb/c), obtained 14 days after the second immunization. IgG1 and IgG2a subclass endpoint titers were also measured from pooled serum.

[7] = values in parentheses are less than unstimulated cells
[8] = Experiment 2, pooled serum n=5 Balb/c, 14 days after second immunization
[9] = Experiment 4, individual Balb/c mouse, day 41, 13 days after secondary immunization (days 0 and 28)
[10] = Experiment 4, pooled serum n=5 Balb/c, day 41, 13 days after secondary immunization
[11] = Experiment 5, pooled serum n=5 Balb/c, immunized days 0 and 22, bled day 42

3-O-deacylated monophosphoryl lipid A [MPL ™]
Secretion of IL-4, Con A 5 μg/ml [1]: 286 pg/mL
Secretion of IL-4, HIV Peptide 1.1 μg/ml ([1]; bd = below limit of detection): 17 pg/mL
Secretion of IL-4, HIV Peptide 3.3 μg/ml ([1]; bd = below limit of detection): bd
Secretion of IL-4, HIV Peptide 10 μg/ml ([1]; bd = below limit of detection): 5 pg/mL
Secretion of Interferon-gamma, Con A 5 μg/ml [2]: 203 units/ml
Secretion of Interferon-gamma, HIV Peptide 1.1 μg/ml ([2]; bd = below limit of detection): bd
Secretion of Interferon-gamma, HIV Peptide 3.3 μg/ml ([2]; bd = below limit of detection): bd
Secretion of Interferon-gamma, HIV Peptide 10 μg/ml ([2]; bd = below limit of detection): 5 units/ml
Vaginal lavage reciprocal anti-HIV peptide IgA endpoint titer [3]: <10
Vaginal lavage reciprocal anti-HIV peptide IgG endpoint titer [3]: <10
Reciprocal anti-HIV peptide IgG (GMT) endpoint titer ([4]; individual Swiss-Webster mice): 1,960
Reciprocal anti-HIV peptide IgG1 (pool) endpoint titer ([4]; pooled serum Swiss-Webster): <1000
Reciprocal anti-HIV peptide IgG2a (pool) endpoint titer ([4]; pooled serum Swiss-Webster): <1000
Spleen cell proliferation index normalized to ConA, Con A 5 μg/ml [5]: 99.2
Spleen cell proliferation index normalized to ConA, HIV Peptide 1.1 μg/ml [5, 7]: 0.5
Spleen cell proliferation index normalized to ConA, HIV Peptide 3.3 μg/ml [5, 7]: 1.4
Spleen cell proliferation index normalized to ConA, HIV Peptide 10 μg/ml [5, 7]: 1.0
Spleen cell proliferation index normalized to ConA, Lysozyme 10 μg/ml [5, 7]: 0.4
Reciprocal anti-T1SP10MN(A) (−Cys) IgG (GMT) endpoint titer ([6]; Experiment 2, geometric mean of individual Balb/c mice, 14 days after second immunization): 241,918
Reciprocal anti-T1SP10MN(A) (−Cys) IgG1 (pool) endpoint titer [6, 8]: 134,428
Reciprocal anti-T1SP10MN(A) (−Cys) IgG2a (pool) endpoint titer [6, 8]: 7,127
Reciprocal anti-T1SP10MN(A) (−Cys) IgG (pool) endpoint titer ([6]; Experiment 2, pooled serum n=5 Balb/c, immunized days 0 and 21, 14 days after second immunization): 219,705
IgG serum titer specific for T1SP10MN(A) (−Cys), Mouse #1 [6, 9]: 50
IgG serum titer specific for T1SP10MN(A) (−Cys), Mouse #2 [6, 9]: 151,846
IgG serum titer specific for T1SP10MN(A) (−Cys), Mouse #3 [6, 9]: 249,054
IgG serum titer specific for T1SP10MN(A) (−Cys), Mouse #4 [6, 9]: 436,378
IgG serum titer specific for T1SP10MN(A) (−Cys), Mouse #5 [6, 9]: 1,245,470
Geometric Mean IgG serum titer specific for T1SP10MN(A) (−Cys), GMT ([6]; Experiment 4, n=5 Balb/c, day 41, 13 days after secondary immunization): 63,452
Reciprocal anti-T1SP10MN(A) (−Cys) IgG1 endpoint titer [6, 10]: 33,544
Reciprocal anti-T1SP10MN(A) (−Cys) IgG2a endpoint titer [6, 10]: 212
Reciprocal anti-T1SP10MN(A) (−Cys) IgG2b endpoint titer [6, 10]: <100
Reciprocal anti-T1SP10MN(A) (−Cys) IgG GMT ([6]; Experiment 5, geometric mean n=5 Balb/c, immunized days 0 and 22, bled day 42): 2,032,441
Reciprocal anti-T1SP10MN(A) (−Cys) IgG1 endpoint titer [6, 11]: 1,314,771
Reciprocal anti-T1SP10MN(A) (−Cys) IgG2a endpoint titer [6, 11]: 9,688
Reciprocal anti-T1SP10MN(A) (−Cys) IgG2b endpoint titer [6, 11]: 13,716
Reciprocal anti-T1SP10MN(A) (−Cys) IgG endpoint titer [6, 11]: 2,635,118
